The target of one assay is T1, mGluR4 (Homo sapiens, UniProt Q14833).
T1 construct: expressed in transfected cells; host or cells: CHO cells (human mGluR4) or HEK cells (rat mGluR4 with GIRK)
T1 sequence (Q14833 33-912): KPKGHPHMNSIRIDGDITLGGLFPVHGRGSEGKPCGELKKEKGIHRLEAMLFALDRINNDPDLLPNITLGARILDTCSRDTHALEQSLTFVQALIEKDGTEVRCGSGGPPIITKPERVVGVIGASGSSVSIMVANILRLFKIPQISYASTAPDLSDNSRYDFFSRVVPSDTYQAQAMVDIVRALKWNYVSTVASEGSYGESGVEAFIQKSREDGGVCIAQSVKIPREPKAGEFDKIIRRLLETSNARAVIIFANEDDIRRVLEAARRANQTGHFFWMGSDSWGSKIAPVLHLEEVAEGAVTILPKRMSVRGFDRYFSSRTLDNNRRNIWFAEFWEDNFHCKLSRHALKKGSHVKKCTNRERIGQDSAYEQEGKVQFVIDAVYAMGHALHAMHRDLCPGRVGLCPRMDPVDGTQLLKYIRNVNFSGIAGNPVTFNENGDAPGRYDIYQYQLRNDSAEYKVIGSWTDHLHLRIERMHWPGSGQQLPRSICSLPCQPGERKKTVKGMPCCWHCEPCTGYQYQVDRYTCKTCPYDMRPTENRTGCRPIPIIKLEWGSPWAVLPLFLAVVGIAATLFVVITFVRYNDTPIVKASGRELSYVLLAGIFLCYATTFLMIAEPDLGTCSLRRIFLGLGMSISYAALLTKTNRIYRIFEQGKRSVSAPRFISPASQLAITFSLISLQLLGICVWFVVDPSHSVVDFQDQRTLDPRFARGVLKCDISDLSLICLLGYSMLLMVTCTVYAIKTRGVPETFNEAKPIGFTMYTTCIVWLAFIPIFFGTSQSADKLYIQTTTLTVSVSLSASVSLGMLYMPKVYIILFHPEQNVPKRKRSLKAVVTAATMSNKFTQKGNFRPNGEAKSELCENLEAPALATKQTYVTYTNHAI
Kind of assay: mGluR4 potentiation assay (fluorometric plate reader, compound then EC20 agonist); species for the tabulated values not stated. It counts as cell-based. The following applies: EC50 for potentiation of mGluR4; EC20 concentration of agonist. The method, then: The disclosed compounds and compositions can be evaluated for their ability to act as a potentiator of metabotropic glutamate receptor activity, in particular mGluR4 activity, by any suitable known methodology known in the art. For example, Chinese Hamster Ovary (CHO) cells transfected with human mGluR4 or HEK cells co-transfected with rat mGluR4 and the G-protein regulated Inwardly Rectifying Potassium channel (GIRK) were plated in clear bottom assay plates for assay in a Hamamatsu FDSS Fluorometric Plate Reader. The cells were loaded with either a Ca2+-sensitive fluorescent dye or the thallium responsive dye and the plates were washed and placed into a suitable kinetic plate reader. For human mGluR4 assays, a fluorescence baseline was established for 3-5 seconds, the disclosed compounds were then added to the cells, and the response in cells was measured. Approximately two and a half minutes later, a concentration of mGluR4 orthosteric agonist (e.g. glutamate or L-AP4) eliciting approximately 20% (EC20) of the maximal agonist response was added to the cells, and the response was measured. Two minutes later, a concentration of mGluR4 agonist (e.g. glutamate or L-AP4) eliciting 80% (EC80) of the maximal agonist response was added to the cells, and the response was measured. For rat mGluR4/GIRK experiments, a baseline was established for approximately five seconds, disclosed compounds were added, and either an EC20 or EC80 concentration of agonist was added approximately two and one half minutes later. Potentiation of the agonist response of mGluR4 by the disclosed compounds was observed as an increase in response to the EC20 concentration of agonist in the presence of compound compared to the response to agonist in the absence of compound. Similarly, antagonism of the agonist response of mGluR4 by the disclosed compounds was observed as a decrease in response to the EC80 concentration of agonist in the presence of compound compared to the response to agonist in the absence of compound.
The above described assay operated in two modes. In the first mode, a range of concentrations of the disclosed compounds are added to cells, followed by a single fixed concentration of agonist. If the compound acts as a potentiatior, an EC50 value for potentiation and a maximum extent of potentiation by the compound at this concentration of agonist is determined by non-linear curve fitting. If the compound acts as a noncompetitive antagonist, an IC50 value is determined by non-linear curve fitting. In the second mode, several fixed concentrations of the disclosed compounds are added to various wells on a plate, followed by a range in concentrations of agonist for each concentration of disclosed compound. The EC50 values for the agonist at each concentration of compound are determined by non-linear curve fitting. A decrease in the EC50 value of the agonist with increasing concentrations of the sample compound (a leftward shift of the agonist concentration-response curve) is an indication of the degree of mGluR4 potentiation at a given concentration of the sample compound. A decrease in the maximal response of the agonist with increasing concentrations of the sample compounds, with or without a rightward shift in agonist potency, is an indication of the degree of noncompetitive antagonism at mGluR4. The second mode also indicates whether the sample compounds also affect the maximum response to mGluR4 to agonists.
As usually defined, the EC50 is the concentration needed to bring the measured effect to its halfway point. Turning to `Clc1cccc(Nc2noc3cccnc23)c1` [Example 1, N-(3-chlorophenyl)isoxazolo[4,5-b]pyridin-3-amine], the concentration giving a half-maximal response (EC50) was found to be 209 nM.

As to `FC(F)Oc1cccc(Nc2noc3cccnc23)c1` [Example 2, N-(3-(difluoromethoxy)phenyl)isoxazolo[4,5-b]pyridin-3-amine], the EC50 was 364 nM.

For `Fc1ccc(Nc2noc3cccnc23)cc1Cl` [Example 3, N-(3-chloro-4-fluorophenyl)isoxazolo[4,5-b]pyridin-3-amine], the EC50 was 893 nM.

In the case of `Clc1ccc(Nc2noc3cccnc23)cc1Cl` [Example 4, N-(3,4-dichlorophenyl)isoxazolo[4,5-b]pyridin-3-amine], the EC50 turned out to be 4610 nM.

In the case of `COc1ccc(Nc2noc3cccnc23)cc1Cl` [Example 5, N-(3-chloro-4-methoxyphenyl)isoxazolo[4,5-b]pyridin-3-amine], the half-maximal effective concentration (EC50) is 78.8 nM.

Consider `FC(F)(F)c1cccc(Nc2noc3cccnc23)c1` [Example 6, N-(3-(trifluoromethyl)phenyl)isoxazolo[4,5-b]pyridin-3-amine], for which the EC50 stood at 434 nM.

With `COc1cc(Nc2noc3cccnc23)ccc1Cl` [Example 7, N-(4-chloro-3-methoxyphenyl)isoxazolo[4,5-b]pyridin-3-amine], the EC50 is 2100 nM.

For the molecule `COc1ccc(Nc2noc3cccnc23)cc1OC` [Example 8, N-(3,4-dimethoxyphenyl)isoxazolo[4,5-b]pyridin-3-amine], the EC50 was 4340 nM.

For `Fc1cccc(Nc2noc3cccnc23)c1` [Example 9, N-(3-fluorophenyl)isoxazolo[4,5-b]pyridine-3-amine], the EC50 is 651 nM.

Still in this assay, the particulars now being: EC50 for potentiation of mGluR4; unit inferred, exponent notation.
In the case of `O=S(=O)(Cc1ccccc1Cl)n1ccc(Nc2noc3cccnc23)c1` [Example 16, N-(1-((2-chlorobenzyl)sulfonyl)-1H-pyrrol-3-yl)isoxazolo[4,5-b]pyridin-3-amine], the EC50 was found to be 89.2 nM.

Consider `c1ccc(Nc2noc3cccnc23)cc1` [Example 17, N-phenylisoxazolo[4,5-b]pyridin-3-amine], for which the EC50 was determined as 2030 nM.

On to `FC(F)(F)Oc1cccc(Nc2noc3cccnc23)c1` [Example 18, N-(3-(trifluoromethoxy)phenyl)isoxazolo[4,5-b]pyridin-3-amine], for which the EC50 amounted to 1170 nM.

On to `c1cnc2c(Nc3ccc4c(c3)OCO4)noc2c1` [Example 19, N-(benzo[d][1,3]dioxol-5-yl)isoxazolo[4,5-b]pyridin-3-amine], for which the EC50 was 1000 nM.

As for `Cc1cc(Nc2noc3cccnc23)ccc1Cl` [Example 20, N-(4-chloro-3-methylphenyl)isoxazolo[4,5-b]pyridin-3-amine], the half-maximal effective concentration (EC50) came to 590 nM.

Consider `CC(=O)c1cccc(Nc2noc3cccnc23)c1` [Example 22, l-(3-(isoxazolo[4,5-b]pyridin-3-ylamino)phenyl)ethanone], for which the EC50 was determined as 3660 nM.

In the case of `Fc1ccc(Nc2noc3cccnc23)cc1F` [Example 23, N-(3,4-difluorophenyl)isoxazolo[4,5-b]pyridin-3-amine], the EC50 amounted to 338 nM.

Regarding `COc1cc(Nc2noc3cccnc23)ccc1F` [Example 24, N-(4-fluoro-3-methoxyphenyl)isoxazolo[4,5-b]pyridin-3-amine], the EC50 stood at 468 nM.

For the molecule `FC(F)C(F)(F)Oc1cccc(Nc2noc3cccnc23)c1` [Example 26], the EC50 turned out to be 4040 nM.

Consider `Fc1ccc2onc(Nc3cccc(Cl)c3)c2n1` [Example 27, N-(3-chlorophenyl)-5-fluoroisoxazolo[4,5-b]pyridin-3-amine], for which the EC50 worked out at 153 nM.

As for `Clc1cccc(Nc2noc3ccccc23)c1` [Example 30, N-(3-chlorophenyl)benzo[d]isoxazol-3-amine], the EC50 amounted to 1140 nM.

Consider `Fc1cccc(Nc2noc3ccccc23)c1` [Example 31, N-(3-fluorophenyl)benzo[d]isoxazol-3-amine], for which the EC50 was determined as 4090 nM.

On to `COc1ccc(Nc2noc3ccccc23)cc1Cl` [Example 33, N-(3-chloro-4-methoxyphenyl)benzo[d]isoxazol-3-amine], for which the EC50 was determined as 7030 nM.
